Like-named read-outs stand apart in the source and are kept apart here.
Key:
Type in all cases: cell-based, mouse
[1] = tested on: α7 integrin (LacZ reporter in α7βgal+/− myoblasts); experiment: Myoblast α7+/LacZ integrin FDG assay (Burkin assay in myoblasts, 96-well); conditions: α7+/LacZ myoblasts, 96-well; for fold induction at 0.5 µM / fold induction at 1 µM / fold induction at 5 µM / fold induction at 10 µM / fold induction at 20 µM / fold induction at 40 µM: Mus musculus, Myoblast, 48 h
[2] = tested on: α7 integrin (LacZ reporter in α7+/LacZ myotubes); experiment: Myotube α7 integrin FDG assay (Burkin assay in myotubes, 96-well); conditions: myotubes; for fold induction at 0.5 µM / fold induction at 1 µM / fold induction at 5 µM / fold induction at 10 µM / fold induction at 20 µM / fold induction at 40 µM: Mus musculus, Myotube
[3] = tested on: β-galactosidase in CMV-LacZ C2C12 myotubes; experiment: CMV-LacZ secondary screen in C2C12 myotubes (β-Gal stabilizing assay); conditions: for CMV-LACZ in Myotubes, signal relative to DMSO / fold induction at 5 µM / fold induction at 10 µM / fold induction at 20 µM / fold induction at 40 µM: C2C12 CMV-LacZ myotubes, fold relative to DMSO; for fold induction at 5 µM / fold induction at 10 µM / fold induction at 20 µM / fold induction at 40 µM: Mus musculus; for fold induction at 5 µM: C2C12, read-out: CMV-LACZ in Myotubes, signal relative to DMSO, 5 uM; for fold induction at 10 µM: C2C12, read-out: CMV-LACZ in Myotubes, signal relative to DMSO, 10 uM; for fold induction at 20 µM: C2C12, read-out: CMV-LACZ in Myotubes, signal relative to DMSO, 20 uM; for fold induction at 40 µM: C2C12, read-out: CMV-LACZ in Myotubes, signal relative to DMSO, 40 uM; for CMV-LACZ in Myotubes (β-galactosidase activity relative to DMSO): CMV-LacZ C2C12 myotubes, 96-well format
Excerpt: In order to determine compounds that acted to stabilize β-gal in myogenic cells, a CMV-LacZ C2C12 cell line was used in a secondary screen. The EGFP gene from the pEGFP (Clontech) vector was replaced by LACZ PCR product with digests of the vector/PCR product performed using EcoRI (NEB) and NotI (NEB) and ligated using T4 DNA Ligase (NEB) following standard procedures to produce the CMV-LACZ vector. The LACZ gene was generated by PCR from the pBK-RSV (Stratagene) vector using primers LACZ EcoRI F- and LACZ NotI R-. The CMV-LACZ vector was then digested with AfIII (NEB) to linearize the construct, which was then transfected in C2C12 myoblasts using Lipofectamine 2000 (Invitrogen) following the manufacturer's instructions. […] Clonal lines were selected and screened for βgal levels using the myoblast FDG assay.
The assays were used the original 96-well format and new dose-response curves for myoblasts (N=3-6 replicates for each data point), myotubes (N=3-6 replicates for data point), and CMV-LacZ secondary assay (N=2 replicates for each data point) using concentrations of 0.5 μM, 1 μM, 5 μM, 10 μM, 20 μM, and 40 μM (Tables 9-16).

Row | Compound | Burkin Assay in Myoblasts, signal relative to DMSO ([1]; 0.5 uM) | Burkin Assay in Myoblasts, signal relative to DMSO ([1]; 1 uM) | Burkin Assay in Myoblasts, signal relative to DMSO ([1]; 5 uM) | Burkin Assay in Myoblasts, signal relative to DMSO ([1]; 10 uM) | Burkin Assay in Myoblasts, signal relative to DMSO ([1]; 20 uM) | Burkin Assay in Myoblasts, signal relative to DMSO ([1]; 40 uM) | Burkin Assay in Myotubes, α7 integrin LacZ reporter signal relative to DMSO ([2]; 0.5 uM) | Burkin Assay in Myotubes, α7 integrin LacZ reporter signal relative to DMSO ([2]; 1 uM) | Burkin Assay in Myotubes, α7 integrin LacZ reporter signal relative to DMSO ([2]; 5 uM) | Burkin Assay in Myotubes, α7 integrin LacZ reporter signal relative to DMSO ([2]; 10 uM) | Burkin Assay in Myotubes, α7 integrin LacZ reporter signal relative to DMSO ([2]; 20 uM) | Burkin Assay in Myotubes, α7 integrin LacZ reporter signal relative to DMSO ([2]; 40 uM) | CMV-LACZ in Myotubes, signal relative to DMSO ([3]; 5 uM) | CMV-LACZ in Myotubes, signal relative to DMSO ([3]; 10 uM) | CMV-LACZ in Myotubes, signal relative to DMSO ([3]; 20 uM) | CMV-LACZ in Myotubes, signal relative to DMSO ([3]; 40 uM) | fold induction at 5 µM [3] | fold induction at 10 µM [3] | fold induction at 20 µM [3] | fold induction at 40 µM [3] | further results
1 | CNC(=O)/C(=C\c1cccc(Oc2ccccc2)c1)NC(=O)c1ccccc1 [MLS000389677-01] | 0.5325 | 0.8831 | 0.8426 | 0.7976 | 0.6619 | 0.6089 | 1.005 | 0.9156 | 1.109 | 0.9956 | 0.6421 | 0.953 | 0.8142 | 0.7418 | 1.019 | 0.761 |  |  |  |  | 
2 | NS(=O)(=O)c1ccc(NC(=O)c2ccc(CNS(=O)(=O)c3cc(C(F)(F)F)ccc3Cl)cc2)cc1 [MLS000393110-01] | 0.9045 | 0.9273 | 1.074 | 1.088 | 1.012 | 0.71 | 1.139 | 0.9276 | 1.022 | 0.9816 | 0.6726 | 0.8173 | 1.103 | 0.9673 | 1.0745 | 0.8895 |  |  |  |  | 
3 | COc1ccccc1C(=O)Nc1nc2cc3c(cc2s1)OCO3 [MLS000419555-01] |  |  |  |  |  |  |  |  |  |  |  |  |  |  |  |  | 1.22 | 1.21 | 1.22 | 1.22 | fold induction at 0.5 µM ([1]; 0.5 uM, read-out: Burkin Assay in Myoblasts, signal relative to DMSO): 1.19; fold induction at 1 µM ([1]; 1 uM, read-out: Burkin Assay in Myoblasts, signal relative to DMSO): 1.2; fold induction at 5 µM ([1]; 5 uM, read-out: Burkin Assay in Myoblasts, signal relative to DMSO): 1.07; fold induction at 10 µM ([1]; 10 uM, read-out: Burkin Assay in Myoblasts, signal relative to DMSO): 1.03; fold induction at 20 µM ([1]; 20 uM, read-out: Burkin Assay in Myoblasts, signal relative to DMSO): 0.948; fold induction at 40 µM ([1]; 40 uM, read-out: Burkin Assay in Myoblasts, signal relative to DMSO): 0.797; fold induction at 0.5 µM ([2]; 0.5 uM, read-out: Burkin Assay in Myotubes, α7 integrin LacZ reporter signal relative to DMSO): 1.05; fold induction at 1 µM ([2]; 1 uM, read-out: Burkin Assay in Myotubes, α7 integrin LacZ reporter signal relative to DMSO): 1.02; fold induction at 5 µM ([2]; 5 uM, read-out: Burkin Assay in Myotubes, α7 integrin LacZ reporter signal relative to DMSO): 1.15; fold induction at 10 µM ([2]; 10 uM, read-out: Burkin Assay in Myotubes, α7 integrin LacZ reporter signal relative to DMSO): 1.09; fold induction at 20 µM ([2]; 20 uM, read-out: Burkin Assay in Myotubes, α7 integrin LacZ reporter signal relative to DMSO): 1.01; fold induction at 40 µM ([2]; 40 uM, read-out: Burkin Assay in Myotubes, α7 integrin LacZ reporter signal relative to DMSO): 1.02
4 | O=C(COC(=O)c1cc2ccccc2oc1=O)Nc1ccc(F)cc1F [MLS000516719-01] |  |  |  |  |  |  |  |  |  |  |  |  |  |  |  |  |  |  |  |  | Burkin Assay in Myoblasts, value relative to DMSO ([1]; 0.5 uM): 1.006; Burkin Assay in Myoblasts, value relative to DMSO ([1]; 1 uM): 1.048; Burkin Assay in Myoblasts, value relative to DMSO ([1]; 5 uM): 1.0321; Burkin Assay in Myoblasts, value relative to DMSO ([1]; 10 uM): 1.068; Burkin Assay in Myoblasts, value relative to DMSO ([1]; 20 uM): 0.9197; Burkin Assay in Myoblasts, value relative to DMSO ([1]; 40 uM): 0.9651; Burkin Assay in Myotubes (signal relative to DMSO) ([2]; 0.5 uM): 0.8618; Burkin Assay in Myotubes (signal relative to DMSO) ([2]; 1 uM): 1.0239; Burkin Assay in Myotubes (signal relative to DMSO) ([2]; 5 uM): 1.203; Burkin Assay in Myotubes (signal relative to DMSO) ([2]; 10 uM): 1.184; Burkin Assay in Myotubes (signal relative to DMSO) ([2]; 20 uM): 1.107; Burkin Assay in Myotubes (signal relative to DMSO) ([2]; 40 uM): 1.175; CMV-LACZ in Myotubes (β-galactosidase activity relative to DMSO) ([3]; 5 uM): 0.8894; CMV-LACZ in Myotubes (β-galactosidase activity relative to DMSO) ([3]; 10 uM): 1.114; CMV-LACZ in Myotubes (β-galactosidase activity relative to DMSO) ([3]; 20 uM): 1.103; CMV-LACZ in Myotubes (β-galactosidase activity relative to DMSO) ([3]; 40 uM): 1.072
5 | CC1(C)Cc2c(ccc3ccccc23)C(=O)N1 [MLS000525404-01] |  |  |  |  |  |  |  |  |  |  |  |  |  |  |  |  | 0.76 | 0.873 | 0.841 | 0.75 | fold induction at 0.5 µM ([1]; 0.5 uM, read-out: Burkin Assay in Myoblasts, value relative to DMSO): 1; fold induction at 1 µM ([1]; 1 uM, read-out: Burkin Assay in Myoblasts, value relative to DMSO): 1.08; fold induction at 5 µM ([1]; 5 uM, read-out: Burkin Assay in Myoblasts, value relative to DMSO): 1.12; fold induction at 10 µM ([1]; 10 uM, read-out: Burkin Assay in Myoblasts, value relative to DMSO): 1.28; fold induction at 20 µM ([1]; 20 uM, read-out: Burkin Assay in Myoblasts, value relative to DMSO): 1.46; fold induction at 40 µM ([1]; 40 uM, read-out: Burkin Assay in Myoblasts, value relative to DMSO): 1.79; fold induction at 0.5 µM ([2]; 0.5 uM, read-out: Burkin Assay in Myotubes (signal relative to DMSO)): 1.04; fold induction at 1 µM ([2]; 1 uM, read-out: Burkin Assay in Myotubes (signal relative to DMSO)): 1.04; fold induction at 5 µM ([2]; 5 uM, read-out: Burkin Assay in Myotubes (signal relative to DMSO)): 1.12; fold induction at 10 µM ([2]; 10 uM, read-out: Burkin Assay in Myotubes (signal relative to DMSO)): 1.09; fold induction at 20 µM ([2]; 20 uM, read-out: Burkin Assay in Myotubes (signal relative to DMSO)): 1.19; fold induction at 40 µM ([2]; 40 uM, read-out: Burkin Assay in Myotubes (signal relative to DMSO)): 1.35
6 | Cc1cc2ccccc2n2c(SCC(=O)NCc3cccs3)nnc12 [MLS000526364-01] | 0.9747 | 0.9502 | 1.045 | 1.085 | 1.114 | 1.029 | 0.9648 | 0.8953 | 1.033 | 0.8908 | 1.358 | 0.9162 | 0.9507 | 0.953 | 1.1735 | 1.1865 |  |  |  |  | 

Reference: patent US9980943B2, “Methods of treating muscular dystrophy” (BOARD OF REGENTS OF THE NEVADA SYSTEM OF HIGHER EDUCATION, …, priority 2013, dated 2018)
